In patent US20240148821A1, “PHARMACEUTICAL USE OF CYCLIC PEPTIDE COMPOUND” (CHUGAI SEIYAKU KABUSHIKI KAISHA, priority 2021, published 2024):
Numbered stars: 1 amine (or outer) side, 2 acyl side, 3 side chain; on linkers, the order of the positions; unused ones are H or OH. Bridge positions count the residues as written; N and C are the ends. Square brackets hold non-standard residues; d marks the D form. Peptide text beside a SMILES is read from it. * marks the point of attachment. hPhe(3-Cl-4-CF3) = N[C@@H](CCc1ccc(C(F)(F)F)c(Cl)c1)C(=O)O; hPhe(3-F,4-CF3) = N[C@@H](CCc1ccc(C(F)(F)F)c(F)c1)C(=O)O; NMePhe(4-CF3) = CN[C@@H](Cc1ccc(C(F)(F)F)cc1)C(=O)O; X65 = O=C([C@H](CCCc1ccc(C(F)(F)F)cc1)N[*:1])[*:2]; hPhe(4-CF3) = N[C@@H](CCc1ccc(C(F)(F)F)cc1)C(=O)O; 3Oxa8azabicyclo(3.2.1)octane = C1CC2COCC1N2*; NEtPhe(4-Me) = CCN[C@@H](Cc1ccc(C)cc1)C(=O)O; NMePhe(4-Cl) = CN[C@@H](Cc1ccc(Cl)cc1)C(=O)O; NEtPhe(2-Cl) = CCN[C@@H](Cc1ccccc1Cl)C(=O)O; NMePhe(4-Me) = CN[C@@H](Cc1ccc(C)cc1)C(=O)O; NMePhe(2-Cl) = CN[C@@H](Cc1ccccc1Cl)C(=O)O; NMedβ3hAla = C[C@H](CC(=O)[*:2])N(C)[*:1]; NMeGly(cPent) = CN[C@H](C(=O)O)C1CCCC1; NMeCha = CN[C@@H](CC1CCCCC1)C(=O)O; X124 = O=C([C@H]1COCCN1[*:1])[*:2]; NEtLeu = CCN[C@@H](CC(C)C)C(=O)O; NMeChg = CN[C@H](C(=O)O)C1CCCCC1; NMeF = CN[C@@H](Cc1ccccc1)C(=O)O; NMeI = CC[C@H](C)[C@H](NC)C(=O)O; N(CH2CH2)2CF2 = FC1(F)CCN(*)CC1; NMeD = CN[C@@H](CC(=O)O)C(=O)O; NMeL = CN[C@@H](CC(C)C)C(=O)O; NMeV = CN[C@H](C(=O)O)C(C)C; d(β3hA) = C[C@@H](N)CC(=O)O; NMeS = CN[C@@H](CO)C(=O)O; Morpholide = C1CN(*)CCO1; NMeA = CN[C@@H](C)C(=O)O; NMeAib = CNC(C)(C)C(=O)O; Piperidide = C1CCN(*)CC1; Pyrrolidide = C1CCN(*)C1; dNMeA = CN[C@H](C)C(=O)O; Ac5c = NC1(C(=O)O)CCCC1; Aze = O=C(O)[C@@H]1CCN1; Cyclobutyl = C1CC(*)C1; Sar = CNCC(=O)O; Propyl = CCC*

These compounds were tested against protein-protein interaction between Kras and SOS1 (biotin-tagged human Kras loaded with GDP, His-tagged human SOS1) (Homo sapiens (Human), UniProt P01116, G12D) (assay: Protein-protein interaction inhibition between Kras and SOS1 (KrasG12D-SOS PPI) using AlphaScreen). Conditions: AlphaScreen; biotin-tagged human Kras loaded with GDP, His-tagged human SOS1; read-out: KRAS G12D-SOS PPI IC50.
Format: biochemical

Structure (SMILES)	IC50 [nM]
CC[C@H](C)[C@@H]1NC(=O)[C@H](C)N(C)C(=O)C[C@@H](C(=O)N(C)C)N(C)C(=O)[C@H]([C@@H](C)CC)N(C)C(=O)C2(CCCC2)NC(=O)[C@H](Cc2ccccc2Cl)N(CC)C(=O)[C@H](CCc2ccc(C(F)(F)F)c(Cl)c2)NC(=O)CN(C)C(=O)[C@H](Cc2ccc(C)cc2)N(C)C(=O)[C@@H]2CCN2C(=O)[C@H](C)N(C)C1=O [Compound 2163] ([NMeA]I[NMeA][Aze][NMePhe(4-Me)][Sar][hPhe(3-Cl-4-CF3)][NEtPhe(2-Cl)][Ac5c][NMeI][NMeD]-NMe2; lactam N-11)	73
CC[C@H](C)[C@@H]1NC(=O)[C@H](CC(C)C)N(C)C(=O)C[C@@H](C(=O)N2CCCCC2)N(C)C(=O)[C@H](C2CCCCC2)N(C)C(=O)C2(CCCC2)NC(=O)[C@H]2COCCN2C(=O)[C@H](CCc2ccc(C(F)(F)F)c(Cl)c2)NC(=O)CN(C)C(=O)[C@H](CC2CCCCC2)N(C)C(=O)CN(C)C(=O)CN(C)C1=O [Compound 1445] ([NMeL]I[Sar][Sar][NMeCha][Sar][hPhe(3-Cl-4-CF3)][X124][Ac5c][NMeChg][NMeD]-Piperidide; lactam N-11)	250
CCCOC[C@H]1C(=O)N(C)CC(=O)N[C@@H](CCc2ccc(C(F)(F)F)c(Cl)c2)C(=O)N2CCC[C@H]2C(=O)NC2(CCCC2)C(=O)N(C)[C@@H](C2CCCC2)C(=O)N(C)[C@H](C(=O)N2C3CCC2COC3)CC(=O)N(CC)[C@@H](CC(C)C)C(=O)N[C@@H]([C@@H](C)CC)C(=O)N[C@@H](C)C(=O)N2CC[C@H]2C(=O)N1C [Compound 1167] ([NEtLeu]IA[Aze][NMeS](Propyl)[Sar][hPhe(3-Cl-4-CF3)]P[Ac5c][NMeGly(cPent)][NMeD]-{3Oxa8azabicyclo(3.2.1)octane}; lactam N-11)	8.7
CC[C@H](C)[C@@H]1NC(=O)[C@H](CC(C)C)N(C)C(=O)C[C@@H](C(=O)N2CCCCC2)N(C)C(=O)[C@H](C(C)C)N(C)C(=O)C2(CCCC2)NC(=O)[C@@H]2CCCN2C(=O)[C@H](CCc2ccc(C(F)(F)F)c(Cl)c2)NC(=O)CN(C)C(=O)[C@H](C(C)C)N(C)C(=O)[C@@H]2CCN2C(=O)[C@H](C)N(C)C1=O [Compound 1737] ([NMeL]I[NMeA][Aze][NMeV][Sar][hPhe(3-Cl-4-CF3)]P[Ac5c][NMeV][NMeD]-Piperidide; lactam N-11)	8.3
CC[C@H](C)[C@@H]1NC(=O)[C@H](CC(C)C)N(C)C(=O)C[C@@H](C(=O)N2CCCCC2)N(C)C(=O)[C@H](C(C)C)N(C)C(=O)C2(CCCC2)NC(=O)[C@@H]2CCCN2C(=O)[C@H](CCc2ccc(C(F)(F)F)c(Cl)c2)NC(=O)CN(C)C(=O)[C@H](CC2CCCCC2)N(C)C(=O)[C@@H]2CCN2C(=O)[C@H](Cc2ccccc2)N(C)C1=O [Compound 1561] ([NMeL]I[NMeF][Aze][NMeCha][Sar][hPhe(3-Cl-4-CF3)]P[Ac5c][NMeV][NMeD]-Piperidide; lactam N-11)	33
CC[C@H](C)[C@@H]1NC(=O)[C@H](C)N(C)C(=O)C[C@@H](C(=O)N2CCCCC2)N(C)C(=O)[C@H](C2CCCCC2)N(C)C(=O)C2(CCCC2)NC(=O)[C@@H]2CCCN2C(=O)[C@H](CCCc2ccc(C(F)(F)F)cc2)NC(=O)CN(C)C(=O)[C@H](CC2CCCCC2)N(C)C(=O)CN(C)C(=O)CN(C)C1=O [Compound 2055, (3S,9S,18S,21S,25S,28S,34S)-28-cyclohexyl-9-(cyclohexylmethyl)-7,10,13,16,21,22,26,29-octamethyl-18-[(1S)-1-methylpropyl]-25-(piperidine-1-carbonyl)-3-[3-[4-(trifluoromethyl)phenyl]propyl]spiro[1,4,7,10,13,16,19,22,26,29,32-undecazabicyclo[32.3.0]heptatriacontane-31,1′-cyclopentane]-2,5,8,11,14,17,20,23,27,30,33-undecone] ([NMeA]I[Sar][Sar][NMeCha][Sar][X65]P[Ac5c][NMeChg][NMeD]-Piperidide; lactam N-11)	27
CC[C@H](C)[C@@H]1NC(=O)[C@H](C)N(C)C(=O)C[C@@H](C(=O)N2CCOCC2)N(C)C(=O)[C@H](C(C)C)N(C)C(=O)C2(CCCC2)NC(=O)[C@H](Cc2ccccc2Cl)N(C)C(=O)[C@H](CCc2ccc(C(F)(F)F)c(Cl)c2)NC(=O)CN(C)C(=O)[C@H](CC2CCCCC2)N(C)C(=O)CN(C)C(=O)CN(C)C1=O [Compound 2020] ([NMeA]I[Sar][Sar][NMeCha][Sar][hPhe(3-Cl-4-CF3)][NMePhe(2-Cl)][Ac5c][NMeV][NMeD]-Morpholide; lactam N-11)	270
CC[C@H](C)[C@@H]1NC(=O)[C@H](CC(C)C)N(C)C(=O)C[C@@H](C(=O)N2C3CCC2COC3)N(C)C(=O)[C@H](C2CCCC2)N(C)C(=O)C2(CCCC2)NC(=O)[C@@H]2CCCN2C(=O)[C@H](CCc2ccc(C(F)(F)F)c(Cl)c2)NC(=O)CN(C)C(=O)[C@H](Cc2ccc(C)cc2)N(CC)C(=O)[C@@H]2CCN2C(=O)[C@H](C)N(C)C1=O [Compound 1236] ([NMeL]I[NMeA][Aze][NEtPhe(4-Me)][Sar][hPhe(3-Cl-4-CF3)]P[Ac5c][NMeGly(cPent)][NMeD]-{3Oxa8azabicyclo(3.2.1)octane}; lactam N-11)	7.3
CC[C@H](C)[C@@H]1NC(=O)[C@H](CC(C)C)N(C)C(=O)C[C@@H](C(=O)N2CCCCC2)N(C)C(=O)[C@H]([C@@H](C)CC)N(C)C(=O)C2(CCCC2)NC(=O)[C@@H]2CCCN2C(=O)[C@H](CCc2ccc(C(F)(F)F)c(Cl)c2)NC(=O)CN(C)C(=O)[C@H](COC2CCC2)N(C)C(=O)[C@@H]2CCN2C(=O)[C@H](C)N(C)C1=O [Compound 885] ([NMeL]I[NMeA][Aze][NMeS](Cyclobutyl)[Sar][hPhe(3-Cl-4-CF3)]P[Ac5c][NMeI][NMeD]-Piperidide; lactam N-11)	1.9
CC[C@H](C)[C@@H]1NC(=O)[C@H](CC2CCCCC2)N(C)C(=O)C[C@@H](C)N(C)C(=O)[C@H](CC(C)C)NC(=O)C(C)(C)N(C)C(=O)[C@H](CC(C)C)NC(=O)[C@H](CCc2ccc(C(F)(F)F)cc2)NC(=O)CN(C)C(=O)[C@H](Cc2ccc(Cl)cc2)N(C)C(=O)CN(C)C(=O)CN(C)C1=O [Compound 595] (cyclo(I[Sar][Sar][NMePhe(4-Cl)][Sar][hPhe(4-CF3)]L[NMeAib]L[NMedβ3hAla][NMeCha]))	290
CC[C@H](C)[C@@H]1NC(=O)[C@H](C)N(C)C(=O)C[C@@H](C)N(C)C(=O)[C@H](CC(C)C)N(C)C(=O)[C@H](Cc2ccccc2)N(C)C(=O)[C@H](CC(C)C)NC(=O)[C@H](CCc2ccc(C(F)(F)F)cc2)NC(=O)CN(C)C(=O)[C@H](Cc2ccc(Cl)cc2)N(C)C(=O)CN(C)C(=O)CN(C)C1=O [Compound 927] (cyclo(I[Sar][Sar][NMePhe(4-Cl)][Sar][hPhe(4-CF3)]L[NMeF][NMeL][NMedβ3hAla][NMeA]))	23
CC[C@H](C)[C@@H]1NC(=O)[C@H](CC(C)C)N(C)C(=O)C[C@@H](C)NC(=O)[C@H](C2CCCC2)N(C)C(=O)C2(CCCC2)NC(=O)[C@@H]2CCCN2C(=O)[C@H](CCc2ccc(C(F)(F)F)c(Cl)c2)NC(=O)CN(C)C(=O)[C@H](Cc2ccc(C(F)(F)F)cc2)N(C)C(=O)[C@@H]2CCN2C(=O)CN(C)C1=O [Compound 1496] (cyclo([Ac5c][NMeGly(cPent)][d(β3hA)][NMeL]I[Sar][Aze][NMePhe(4-CF3)][Sar][hPhe(3-Cl-4-CF3)]P))	2
CC[C@H](C)[C@@H]1NC(=O)[C@H](C)N(C)C(=O)C[C@@H](C)NC(=O)[C@H](C(C)C)N(C)C(=O)C2(CCCC2)NC(=O)[C@@H]2CCCN2C(=O)[C@H](CCc2ccc(C(F)(F)F)c(Cl)c2)NC(=O)[C@@H](C)N(C)C(=O)[C@H](CC2CCCCC2)N(C)C(=O)[C@@H]2CCN2C(=O)[C@H](CC(C)C)N(C)C1=O [Compound 2018] (cyclo([Ac5c][NMeV][d(β3hA)][NMeA]I[NMeL][Aze][NMeCha][dNMeA][hPhe(3-Cl-4-CF3)]P))	320
CC[C@H](C)[C@@H]1NC(=O)[C@H](CC(C)C)N(C)C(=O)C[C@@H](C(=O)N2CCCCC2)NC(=O)[C@H](C(C)C)N(C)C(=O)C2(CCCC2)NC(=O)[C@H](CC(=O)N2CCC(F)(F)CC2)N(C)C(=O)[C@H](CCc2ccc(C(F)(F)F)c(Cl)c2)NC(=O)CN(C)C(=O)[C@H](CC2CCCCC2)N(C)C(=O)CN(C)C(=O)CN(C)C1=O [Compound 3] ([NMeL]I[Sar][Sar][NMeCha][Sar][hPhe(3-Cl-4-CF3)][NMeD](N(CH2CH2)2CF2)[Ac5c][NMeV]D-Piperidide; lactam N-11)	310
CCCOC[C@H]1C(=O)N(C)CC(=O)N[C@@H](CCc2ccc(C(F)(F)F)c(F)c2)C(=O)N2CCC[C@H]2C(=O)NC2(CCCC2)C(=O)N(C)[C@@H]([C@@H](C)CC)C(=O)N(C)[C@H](C(=O)N2C3CCC2COC3)CC(=O)N(C)[C@@H](CC(C)C)C(=O)N[C@@H]([C@@H](C)CC)C(=O)N(C)[C@@H](C)C(=O)N2CC[C@H]2C(=O)N1C [Compound 408] ([NMeL]I[NMeA][Aze][NMeS](Propyl)[Sar][hPhe(3-F,4-CF3)]P[Ac5c][NMeI][NMeD]-{3Oxa8azabicyclo(3.2.1)octane}; lactam N-11)	11
CCCOC[C@H]1C(=O)N(C)CC(=O)N[C@@H](CCc2ccc(C(F)(F)F)c(F)c2)C(=O)N2CCC[C@H]2C(=O)NC2(CCCC2)C(=O)N(C)[C@@H]([C@@H](C)CC)C(=O)N(C)[C@H](C(=O)N2CCCC2)CC(=O)N(C)[C@@H](CC(C)C)C(=O)N[C@@H]([C@@H](C)CC)C(=O)N(C)[C@@H](C)C(=O)N2CC[C@H]2C(=O)N1C [Compound 684] ([NMeL]I[NMeA][Aze][NMeS](Propyl)[Sar][hPhe(3-F,4-CF3)]P[Ac5c][NMeI][NMeD]-Pyrrolidide; lactam N-11)	1.9
CC[C@H](C)[C@@H]1NC(=O)[C@H](C(C)C)N(C)C(=O)C[C@@H](C)NC(=O)[C@H](CC(C)C)N(C)C(=O)C2(CCCC2)NC(=O)[C@H](CC(C)C)N(C)C(=O)[C@H](CCc2ccc(C(F)(F)F)c(Cl)c2)NC(=O)CN(C)C(=O)[C@H](Cc2ccc(Cl)cc2)N(C)C(=O)CN(C)C(=O)CN(C)C1=O [Compound 1014] (cyclo([Ac5c][NMeL][d(β3hA)][NMeV]I[Sar][Sar][NMePhe(4-Cl)][Sar][hPhe(3-Cl-4-CF3)][NMeL]))	13
